{
  "source": "patent US20190022152A1",
  "about": "“MICROBIOME RESPONSE TO AGENTS” (Yeda Research and Development Co., Ltd., priority 2014, published 2019)",
  "key": {"[1]": {"tested_on": "microbiota of germ-free recipient mice", "text": "C57Bl/6 WT adult male mice were randomly assigned (without blinding) to treatment groups and were given commercial artificial sweeteners (saccharin-, sucralose- or aspartame-based) or pure saccharin (Sigma Aldrich) in drinking water and fed a high-fat (HFD D12492, 60% Kcal from fat, Research Diets) or standard polysaccharide normal chow (NC) diet (Harlan-Teklad). Compared groups were always fed from the same batch of diet. For antibiotic treatment, mice were given a combination of ciprofloxacin (0.2 gl^−1) and metronidazole ([…]) or vancomycin (0.5 gl^−1) in their drinking water. All antibiotics were obtained from Sigma Aldrich. Adult male outbred Swiss-Webster mice (a widely used mouse strain in germ-free experiments) served as recipients for fecal transplants and were housed in sterile isolators (Park Biosciences). For fecal transplantation experiments, 200 mg of stool (from mouse pellets or human swabs) was resuspended in 5 ml of PBS under anaerobic conditions, vortexed for 3 minutes and allowed to settle by gravity for 2 minutes. Recipient mice were gavaged with 200 μl of the supernatant and maintained on standard NC diet and water throughout the experiment.\npooled fecal matter from naïve adult WT C57Bl/6 male mice was resuspended in 5 ml PBS in an anaerobic chamber (Coy Laboratory Products, 75% N2, 20% CO2, 5% H2), vortexed for 3 minutes and allowed to settle by gravity for 2 minutes. […] were added to a tube containing Chopped Meat Carbohydrate Broth, PR II (BD) and […] of a 5 mgml-1 saccharin solution or an equal volume of PBS. Every 3 days, 500 ml of culture were diluted to fresh medium containing saccharin or PBS. After 9 days, cultures were used for inoculation of germ-free mice.\nFrozen fecal samples were processed for DNA isolation using the MoBio PowerSoil kit according to the manufacturer's instructions. 1 ng of the purified fecal DNA was used for PCR amplification and sequencing of the bacterial 16S rRNA gene. ˜365 bp Amplicons spanning the variable region 2 (V2) of the 16S rRNA gene were generated by using the following barcoded primers: Fwd 5′-[…]-3′ (SEQ ID NO: 3), Rev 5′-[…]-3′ (SEQ ID NO: 4). […] Reads were then processed using the QIIME (Quantitative Insights Into Microbial Ecology) analysis pipeline as described, version 1.8. Paired-end joined sequences were grouped into operational taxonomic units (OTUs) using the UCLUST algorithm and the greengenes database. Sequences with distance-based similarity of 97% or greater over median sequence length of 353 bp were assigned to the same OTU. Samples were grouped according to the treatment. Analysis was performed at each taxonomical level (Phylum-genus+OTU level) separately. For each taxon, G test was performed between the different groups. P-values were FDR corrected for multiple hypothesis testing."}, "[2]": {"conditions": "cited from earlier work"}, "[3]": {"conditions": "GF recipients of D7 vs D1 microbiome from human responder"}, "[4]": {"conditions": "GF recipients of saccharin-enriched culture, day 6, level 2"}},
  "data": [
    {"smiles": "O=C1NS(=O)(=O)c2ccccc21", "note": "[saccharin]", "values": [
      {"measurement": "decrease in Candidatus Arthromitus", "setting": "[1]; [3]", "result": "~10", "unit": "fold"},
      {"measurement": "relative increase of Bacteroides fragilis", "setting": "[1]; [3]", "result": 20, "unit": "fold"},
      {"measurement": "relative increase of Weissella ciboria", "setting": "[1]; [3]", "result": 20, "unit": "fold"},
      {"measurement": "Saccharin Enriched D6: p_Bacteroidetes", "setting": "[1]; [4]", "result": 0.611},
      {"measurement": "Saccharin Enriched D6: p_Firmicutes", "setting": "[1]; [4]", "result": 0.3649},
      {"measurement": "Saccharin Enriched D6: p_Tenericutes", "setting": "[1]; [4]", "result": 0.02291},
      {"measurement": "Saccharin Enriched D6: p_Bacteroidetes; c_Bacteroidia", "setting": "[1]; GF recipients, day 6, level 3", "result": 0.6108},
      {"measurement": "Saccharin Enriched D6: p_Firmicutes; c_Bacilli", "setting": "[1]; GF recipients, day 6, level 3", "result": 0.3122},
      {"measurement": "Saccharin Enriched D6: p_Firmicutes; c_Clostridia", "setting": "[1]; GF recipients, day 6, level 3", "result": 0.05266},
      {"measurement": "Saccharin Enriched D6: p_Proteobacteria; c_Gammaproteobacteria", "setting": "[1]; GF recipients, day 6, level 3", "result": 0.0001278},
      {"measurement": "Saccharin Enriched D6: p_Tenericutes; c_Mollicutes", "setting": "[1]; GF recipients, day 6, level 3", "result": 0.02291},
      {"measurement": "Saccharin Enriched D6: c_Bacilli; o_Lactobacillales", "setting": "[1]; GF recipients, day 6, level 4", "result": 0.3116},
      {"measurement": "Saccharin Enriched D6: c_Bacteroidia; o_Bacteroidales", "setting": "[1]; GF recipients, day 6, level 4", "result": 0.6108},
      {"measurement": "Saccharin Enriched D6: c_Clostridia; o_Clostridiales", "setting": "[1]; GF recipients, day 6, level 4", "result": 0.05266},
      {"measurement": "Saccharin Enriched D6: c_Gammaproteobacteria; o_Enterobacteriales", "setting": "[1]; GF recipients, day 6, level 4", "result": 0.0001248},
      {"measurement": "Saccharin Enriched D6: c_Mollicutes; o_Anaeroplasmatales", "setting": "[1]; GF recipients, day 6, level 4", "result": 0.02291},
      {"measurement": "Saccharin Enriched D6: o_Anaeroplasmatales; f_Anaeroplasmataceae", "setting": "[1]; GF recipients, day 6, level 5", "result": 0.02291},
      {"measurement": "Saccharin Enriched D6: o_Bacteroidales; f_Bacteroidaceae", "setting": "[1]; GF recipients, day 6, level 5", "result": 0.467},
      {"measurement": "Saccharin Enriched D6: o_Bacteroidales; f_Porphyromonadaceae", "setting": "[1]; GF recipients, day 6, level 5", "result": 0.1379},
      {"measurement": "Saccharin Enriched D6: o_Bacteroidales; f_S24-7", "setting": "[1]; GF recipients, day 6, level 5", "result": "7.066E−05"},
      {"measurement": "Saccharin Enriched D6: o_Bacteroidales; f_[Odoribacteraceae]", "setting": "[1]; GF recipients, day 6, level 5", "result": 0.004319},
      {"measurement": "Saccharin Enriched D6: o_Clostridiales; f_", "setting": "[1]; GF recipients, day 6, level 5", "result": 0.04275},
      {"measurement": "Saccharin Enriched D6: o_Clostridiales; f_Clostridiaceae", "setting": "[1]; GF recipients, day 6, level 5", "result": 0.005131},
      {"measurement": "Saccharin Enriched D6: o_Clostridiales; f_Dehalobacteriaceae", "setting": "[1]; GF recipients, day 6, level 5", "result": 0.0008389},
      {"measurement": "Saccharin Enriched D6: o_Clostridiales; f_Ruminococcaceae", "setting": "[1]; GF recipients, day 6, level 5", "result": 0.003365},
      {"measurement": "Saccharin Enriched D6: o_Enterobacteriales; f_Enterobacteriaceae", "setting": "[1]; GF recipients, day 6, level 5", "result": 0.0001248},
      {"measurement": "Saccharin Enriched D6: o_Lactobacillales; f_Lactobacillaceae", "setting": "[1]; GF recipients, day 6, level 5", "result": 0.3087},
      {"measurement": "Saccharin Enriched D6: o_Lactobacillales; f_Streptococcaceae", "setting": "[1]; GF recipients, day 6, level 5", "result": 0.0009772},
      {"measurement": "Saccharin Enriched D6: f_Anaeroplasmataceae; g_Anaeroplasma", "setting": "[1]; GF recipients, day 6, level 6", "result": 0.02291},
      {"measurement": "Saccharin Enriched D6: f_Bacteroidaceae; g_Bacteroides", "setting": "[1]; GF recipients, day 6, level 6", "result": 0.467},
      {"measurement": "Saccharin Enriched D6: f_Clostridiaceae; g_Candidatus Arthromitus", "setting": "[1]; GF recipients, day 6, level 6", "result": 0.005047},
      {"measurement": "Saccharin Enriched D6: f_Clostridiaceae; g_Clostridium", "setting": "[1]; GF recipients, day 6, level 6", "result": "4.209E−05"},
      {"measurement": "Saccharin Enriched D6: f_Dehalobacteriaceae; g_Dehalobacterium", "setting": "[1]; GF recipients, day 6, level 6", "result": 0.0008389},
      {"measurement": "Saccharin Enriched D6: f_Enterobacteriaceae; g_", "setting": "[1]; GF recipients, day 6, level 6", "result": 0.0001248},
      {"measurement": "Saccharin Enriched D6: f_Lachnospiraceae; g_[Ruminococcus]", "setting": "[1]; GF recipients, day 6, level 6", "result": "7.818E−05"},
      {"measurement": "Saccharin Enriched D6: f_Lactobacillaceae; g_Lactobacillus", "setting": "[1]; GF recipients, day 6, level 6", "result": 0.3087},
      {"measurement": "Saccharin Enriched D6: f_Porphyromonadaceae; g_Parabacteroides", "setting": "[1]; GF recipients, day 6, level 6", "result": 0.1379},
      {"measurement": "Saccharin Enriched D6: f_Ruminococcaceae; g_", "setting": "[1]; GF recipients, day 6, level 6", "result": 0.003112},
      {"measurement": "Saccharin Enriched D6: f_S24-7; g_", "setting": "[1]; GF recipients, day 6, level 6", "result": "7.066E−05"},
      {"measurement": "Saccharin Enriched D6: f_Streptococcaceae; g_Lactococcus", "setting": "[1]; GF recipients, day 6, level 6", "result": 0.0008509},
      {"measurement": "Saccharin Enriched D6: f_[Odoribacteraceae]; g_Odoribacter", "setting": "[1]; GF recipients, day 6, level 6", "result": 0.004319},
      {"measurement": "Saccharin Enriched D6: o_Clostridiales; f_; g_", "setting": "[1]; GF recipients, day 6, level 6", "result": 0.04275},
      {"measurement": "FDA defined ADI (acceptable daily intake) in humans", "setting": "[2]; humans", "result": 5, "unit": "mgkg^−1"},
      {"measurement": "reported toxic dose", "setting": "[2]; literature values", "result": 6.3, "unit": "gkg^−1"}
    ]}
  ]
}
